These results are taken from article PMC3608651, “A Broad Profile of Co-Dominant Epitopes Shapes the Peripheral Mycobacterium tuberculosis Specific CD8+ T-Cell Immune Response in South African Patients with Active Tuberculosis” (PLoS ONE, 2013).

Where two headings read alike, the source gives them in different places. Marks after values point to notes of the source that are not given here.

In test [1] the target is T1, HLA-A*30:02 (Homo sapiens, UniProt P04439, D101N/D140H/D185E/E176R/F33S/G80R/H175R/K168Q/Q94H/R138E/R41S/V100E). The following applies: cited from earlier work.
Test [2] deals with T2, HLA-A*24:02 (Homo sapiens, UniProt P04439, D101N/D140Y/D185E/E176V/E190D/F33S/G103R/G107R/I119L/I121M/I306V/K335N/L105A/L180Q/L300P/N151K/N90K/Q86E/Q94H/R106L/R138H/R89G/T104I/T345S/V100E/W191G/Y123F). The following applies: percent relative the binding of a positive control peptide; […]; cited from earlier work.
For test [3], the target named is T3, HLA-B*58:01 (Homo sapiens, UniProt P01889, A329T/C349S/D201E/D98Y/E176V/E187L/E204Q/E69T/G107R/I218V/I90N/K202T/L105A/L119I/N104I/N87E/Q89R/Q94S/R106L/R155S/R180L/R86G/S101N/S121R/S35A/S48A/T118I/V127L/V306I/V36M/Y140S/Y91M). It counts as binding. To be noted: percent relative the binding of positive control peptide […]; duplicated experiments; positive binder >40%.

Test [4] concerns the target T4, HLA-A*30:01 (Homo sapiens, UniProt P04439, D140H/D185E/E176W/F33S/G80R/H175R/K168Q/R138E/R41S). The following applies: cited from earlier work.
In test [5] the target is T4, HLA-A*30:01. The following applies: cited from earlier work. This is another data set of the same source.
In test [6] the target is T5, HLA-A*02:01 (Homo sapiens, UniProt P04439, D140Y/D185E/D98H/E176V/E277Q/G131W/G231S/I119V/I121R/I166T/I218V/L300P/L318F/N151K/N90K/P208A/P217A/Q86G/Q94H/R138H/R169H/T345S). The following applies: cited from earlier work.
Test [7] deals with T2, HLA-A*24:02. To be noted: cited from earlier work.
Test [8] has as its target T4, HLA-A*30:01. To be noted: cited from earlier work. This is another data set of the same source.
The target in test [9] is T6, HLA-B*07:02 (Homo sapiens, UniProt P01889). To be noted: cited from earlier work.
Test [10] has as its target T7, HLA-C*07:01 (Homo sapiens, UniProt P10321, K90N/S123Y). In kind it is binding. To be noted: percent relative the binding of positive control peptide […]; duplicated experiments; positive binder >40%.
In test [11] the target is T1, HLA-A*30:02. The following applies: cited from earlier work. This is another data set of the same source.
In a further test the target is HLA-A*68:01 (Homo sapiens, UniProt P04439, A269V/D185E/E176V/E277Q/E87N/F33Y/G231S/I121M/I166T/I218V/L180W/L300P/L318F/N151K/P208A/P217A/Q86R/R169H/T345S). In kind it is binding. The following applies: percent relative the binding of positive control peptide […]; duplicated experiments; positive binder >40%.
Test [12] concerns the target T3, HLA-B*58:01. It counts as binding.
Test [13] concerns the target T3, HLA-B*58:01. In kind it is binding. To be noted: time points 0-8 h.
Test [14] addresses T5, HLA-A*02:01. To be noted: cited from earlier work. This is another data set of the same source.
Test [15] has as its target T2, HLA-A*24:02. The following applies: cited from earlier work. This is another data set of the same source.
In test [16] the target is T6, HLA-B*07:02. The following applies: cited from earlier work. The source holds these as a separate data set.
The target of test [17] is T1, HLA-A*30:02. The following applies: cited from earlier work. This is another data set of the same source.
The target in test [18] is T6, HLA-B*07:02. To be noted: cited from earlier work. The source holds these as a separate data set.
In test [19] the target is T7, HLA-C*07:01. As to the kind of experiment: off-rate assay (t1/2). It counts as binding. The following applies: time points 0-8 h.
In test [20] the target is T7, HLA-C*07:01. The test is described as follows: affinity assay (ED50). In kind it is binding.
Test [21] has as its target T5, HLA-A*02:01. The following applies: cited from earlier work. This is another data set of the same source.
[22] abbreviates: percent relative the binding of a positive control peptide, […].

Consider IMYNYPAML [Rv0288_4–12], for which the “Bind A*30:02” value at HLA-A*30:02 [1] is recorded as 91** percent. The “Bind A*24:02” value on HLA-A*24:02 [2] was 107* percent. Besides, the “Bind B*58:01” value on HLA-B*58:01 [3] is on record as 110%. The “Bind A*30:01” value at HLA-A*30:01 [4] (setting [22]) is reported as 146** percent. For the same sequence, on HLA-A*30:01 [5], the “O-rate A*30:01 (t1/2)” value was 0.5 h. Further, on HLA-A*02:01 [6], the “Aff A*02:01 (ED50)” value was 0.8 µM. Further, at HLA-A*24:02 [7], the “O-rate A*24:02 (t1/2)” value was 1.6 h. At HLA-A*30:01 [8], the “Aff A*30:01 (ED50)” value was 5 µM. Moreover, the “O-rate B*07:02 (t1/2)” value on HLA-B*07:02 [9] is recorded as 1.6 h. Also, the “Bind C*07:01” value on HLA-C*07:01 [10] is on record as 67%. Moreover, the “O-rate A*30:02 (t1/2)” value on HLA-A*30:02 [11] is 3.1 h. For the same sequence, the “Bind A*68:01” value on HLA-A*68:01 is 0%. The “Aff B*58:01 (ED50)” value at HLA-B*58:01 [12] came to 0.2 µM. In addition, on HLA-B*58:01 [13], the “O-rate B*58:01 (t1/2)” value amounted to 1.0 h. The “Bind A*02:01” value at HLA-A*02:01 [14] (setting [22]) was 94* percent. Further, the “Aff A*24:02 (ED50)” value on HLA-A*24:02 [15] is 0.1 µM. Also, the “Bind B*07:02” value on HLA-B*07:02 [16] (setting [22]) was 35* percent. For the same sequence, the “Aff A*30:02 (ED50)” value at HLA-A*30:02 [17] was 0.008 µM. Moreover, the “Aff B*07:02 (ED50)” value at HLA-B*07:02 [18] was 30 µM. Moreover, the “O-rate C*07:01 (t1/2)” value on HLA-C*07:01 [19] was determined as 0.2 h. Also, the “Aff C*07:01 (ED50)” value on HLA-C*07:01 [20] worked out at 0.2 µM. Besides, the “O-rate A*02:01 (t1/2)” value on HLA-A*02:01 [21] is on record as 26.9 h.

Regarding QIMYNYPAM [Rv0288_3–11wt], the “Bind A*30:02” value at HLA-A*30:02 [1] (setting [22]) was 90** percent. The “Bind A*24:02” value on HLA-A*24:02 [2] is given as 55* percent. The “Bind B*58:01” value at HLA-B*58:01 [3] worked out at 34%. Further, on HLA-A*30:01 [4], the “Bind A*30:01” value is reported as 163** percent. Further, the “O-rate A*30:01 (t1/2)” value on HLA-A*30:01 [5] was 0.8 h. Further, the “Aff A*02:01 (ED50)” value at HLA-A*02:01 [6] is 1 µM. Moreover, the “O-rate A*24:02 (t1/2)” value on HLA-A*24:02 [7] was 0.1 h. The “Aff A*30:01 (ED50)” value at HLA-A*30:01 [8] is 4 µM. The “O-rate B*07:02 (t1/2)” value at HLA-B*07:02 [9] is 1.5 h. Besides, the “O-rate A*30:02 (t1/2)” value on HLA-A*30:02 [11] is 1.1 h. Further, the “Aff B*58:01 (ED50)” value on HLA-B*58:01 [12] stood at 10 µM. The “O-rate B*58:01 (t1/2)” value on HLA-B*58:01 [13] came to 0.4 h. For the same sequence, the “Bind A*02:01” value on HLA-A*02:01 [14] is reported as 68* percent. On HLA-A*24:02 [15], the “Aff A*24:02 (ED50)” value is 1 µM. Further, the “Bind B*07:02” value on HLA-B*07:02 [16] was 28* percent. Besides, at HLA-A*30:02 [17], the “Aff A*30:02 (ED50)” value is 0.04 µM. In addition, at HLA-B*07:02 [18], the “Aff B*07:02 (ED50)” value was 800 µM. In addition, on HLA-A*02:01 [21], the “O-rate A*02:01 (t1/2)” value is given as 1.1 h.
